The nature of the experiment: Inhibition of Influenza A virus H1N1 Neuraminidase.

For `CCC(CC)O[C@@H]1C=C(C(=O)O)C[C@H](NCc2ccc(Sc3ccccc3)cc2)[C@H]1NC(C)=O`, half-maximal inhibition (IC50) was put at 5.6 nM.

A word on the IC50: it is the concentration that inhibits the measured activity by half.

Values taken from BindingDB's records for PubMed 34735766 (Shandong University, 2021).
